Measurements published in paper PMC3253737 (Journal of Natural Products, 2011).
Like-named read-outs stand apart in the source and are kept apart here.

How the values were obtained:
MTS viability = format: cell-based; conditions: human (JMAR, MDA-1986, SKMEL-28, MRC-5) and mouse (B16F10)
[1] = tested on: HNSCC (JMAR and MDA-1986), melanoma (B16F10 and SKMEL-28), and normal fetal fibroblast (MRC-5) cells; assay: MTS viability; format: cell-based
[2] = Cytotoxicity IC50 (inactive for all cell lines used), all cell lines used (B16F10, SKMEL-28, JMAR, MDA-1986, MRC-5)

| Structure (SMILES) | IC50 (MTS viability; cytotoxicity IC50) | IC50 (MTS viability; [2]) | also measured |
| --- | --- | --- | --- |
| CC1=C(C)C(=O)O[C@@H]([C@@H](C)[C@H]2CC[C@H]3[C@@H]4C[C@H]5O[C@]56[C@@H](O)C=CC(=O)[C@]6(CO)[C@H]4CC[C@]23C)C1 [Compound 2, 27-deoxy-19-hydroxywithaferin A] | 0.067 to 9.3 µM |  |  |
| CC1=C(CO)C(=O)O[C@@H]([C@@H](C)[C@H]2CC[C@H]3[C@@H]4C[C@@H]5O[C@@H]6CC(=O)[C@](C)([C@H]4CC[C@]23C)[C@@]5(O)[C@H]6O)C1 [Compound 21, 3α,6α-epoxy-4β,5β,27-trihydroxy-1-oxowitha-24-enolide] |  | > 10 µM |  |
| CO[C@H]1CC(=O)[C@]2(C)[C@H]3CC[C@]4(C)[C@@H]([C@H](C)[C@H]5CC(C)=C(CO)C(=O)O5)CC[C@H]4[C@@H]3C[C@H]3O[C@]32[C@H]1O [Compound 17, 2,3-dihydro-3β-methoxywithaferin A] |  |  | IC50 (MTS viability; Cytotoxicity IC50 (inactive for all cell lines used)): > 10 µM |
| CC1=C(CO[C@@H]2O[C@H](CO)[C@@H](O[C@@H]3O[C@@H](C)[C@H](O)[C@@H](O)[C@H]3O)[C@H](O)[C@H]2O)C(=O)O[C@@H]([C@@H](C)[C@H]2CC[C@H]3[C@@H]4C[C@H]5O[C@]56[C@@H](O)C=CC(=O)[C@]6(C)[C@H]4CC[C@]23C)C1 [Compound 8, 27-O-[α-L-rhamnopyranosyl(1→4)]-β-D-glucopyranosyl-withaferin A] | 0.067 to 9.3 µM |  | cytotoxicity relative to the aglycone withaferin A (16) [1]: less cytotoxicity |
| CC1=C(CO)C(=O)O[C@@H]([C@@H](C)[C@H]2CC[C@H]3[C@@H]4C[C@H]5O[C@]56[C@@H](O)CCC(=O)[C@]6(C)[C@H]4CC[C@]23C)C1 [Compound 20, 2,3-dihydrowithaferin A] |  | > 10 µM |  |
| CC1=C(CO[C@@H]2O[C@H](CO)[C@@H](O)[C@H](O)[C@H]2O)C(=O)O[C@@H]([C@@H](C)[C@H]2CC[C@H]3[C@@H]4C[C@H]5O[C@]56[C@@H](O)C=CC(=O)[C@]6(C)[C@H]4CC[C@]23C)C1 [Compound 15, 27-O-β-D-glucopyranosyl-withaferin A] |  |  | cytotoxicity relative to the aglycone withaferin A (16) ([1]; MTS assay, comparison in words): less cytotoxicity |
| CC1=C(CO)C(=O)O[C@@H]([C@@H](C)[C@H]2CC[C@H]3[C@@H]4C[C@H]5O[C@]56[C@@H](O)[C@@H](O)CC(=O)[C@]6(C)[C@H]4CC[C@]23C)C1 [Compound 18, viscosalactone B] |  | > 10 µM |  |
| CC1=C(CO)C(=O)O[C@@H]([C@@H](C)[C@H]2CC[C@H]3[C@@H]4C[C@H]5O[C@]56[C@@H](O)[C@@H](OS(=O)(=O)O)CC(=O)[C@]6(CO)[C@H]4CC[C@]23C)C1 [Compound 7, 2,3-dihydro-19-hydroxy-3β-O-sulfate-withaferin A] | 0.067 to 9.3 µM |  |  |
| CC1=C(CO)C(=O)O[C@@H]([C@@H](C)[C@H]2CC[C@H]3[C@@H]4CC=C5C=CC(=O)[C@]5(C)[C@H]4CC[C@]23C)C1 [Compound 6, A-nor-27-hydroxy-1-oxowitha-2,5,24-trienolide] |  |  | IC50 (MTS viability): > 10 µM |
| CC1=C(CO)C(=O)O[C@@H]([C@@H](C)[C@H]2CC[C@H]3[C@@H]4C[C@H]5O[C@]56[C@@H](O)C=CC(=O)[C@]6(CO)[C@H]4CC[C@]23C)C1 [Compound 1, 19-hydroxywithaferin A] |  |  | IC50 (MTS viability): 0.067 to 9.3 µM |
